# Measurements taken from patent US7048907B2, “Synthesis, compositions and methods for the measurement of the concentration of stable-isotope labeled compounds in life forms and life form excretory products” (BioPhysics Assay Laboratory, Inc., priority 2001, dated 2006).
# Legend:
# [1] = Stability of chelates in rat serum (CM-Sephadex assay, serum binding); conditions: 24 hours in rat serum at room temperature
# [2] = Blood depletion of Gd-DTPA in the rat after three sequential administrations (theoretical example); type: in vivo
# Procedure: In this theoretical example, three 0.5 ml samples of Gd-DTPA (0.05 mg/kg) each dissolved in saline (pH 7) are injected sequentially at 0, 20, and 40 minutes into the tail vein of a rat. Samples of blood are obtained at 10, 30 and 60 minutes following each injection and analyzed for Gd by T1 relaxation. […] This example highlights one advantage of using neutron activation over T1 relaxivity to measure pharmacological rates of elimination when using sequential injections (compare Examples 32 and 33).
# [3] = demonstrated by properties of the marketed pharmaceutical product; cited from earlier work
# [4] = Effect of dilution on the stability of Sm-DTPA; type: physicochemical
# Procedure: Sm-DTPA (1 mM) was prepared as described in Example 9. The solution was further diluted with 0.01 M Tris buffer pH 7.51:10, 1:100, 1:1000, and 1:10000 and allowed to stand at room temperature for 24 hours. The four samples were then assayed for stability of the Sm-DTPA complex as described in Example 17.
# [5] = Fraction 1: 0.2 ml sample then 2 ml 0.01M Tris pH 7.5 (eluate)
# [6] = Fraction 2: 3 ml 0.01M Tris pH 7.5
# [7] = Fraction 3: column and contents (retained)
# [8] = Sm-DTPA 0.1 μM, 24 hours room temperature, Fraction 1: 3 ml Tris before sample
# [9] = Sm-DTPA 0.1 μM, 24 hours room temperature, Fraction 2: sample then 3 ml Tris (eluate)
# [10] = Sm-DTPA 0.1 μM, 24 hours room temperature, Fraction 3: further 3 ml Tris
# [11] = Sm-DTPA 0.1 μM, 24 hours room temperature, Fraction 4: column and contents
# [12] = Sm-DTPA 1 μM, 24 hours room temperature, Fraction 1: 3 ml Tris before sample
# [13] = Sm-DTPA 1 μM, 24 hours room temperature, Fraction 2: sample then 3 ml Tris (eluate)
# [14] = Sm-DTPA 1 μM, 24 hours room temperature, Fraction 3: further 3 ml Tris
# [15] = Sm-DTPA 1 μM, 24 hours room temperature, Fraction 4: column and contents
# [16] = Sm-DTPA 10 μM, 24 hours room temperature, Fraction 1: 3 ml Tris before sample
# [17] = Sm-DTPA 10 μM, 24 hours room temperature, Fraction 2: sample then 3 ml Tris (eluate)
# [18] = Sm-DTPA 10 μM, 24 hours room temperature, Fraction 3: further 3 ml Tris
# [19] = Sm-DTPA 10 μM, 24 hours room temperature, Fraction 4: column and contents
# [20] = Sm-DTPA 100 uM, 24 hours room temperature, Fraction 1: 3 ml Tris before sample
# [21] = Sm-DTPA 100 uM, 24 hours room temperature, Fraction 2: sample then 3 ml Tris (eluate)
# [22] = Sm-DTPA 100 uM, 24 hours room temperature, Fraction 3: further 3 ml Tris
# [23] = Sm-DTPA 100 uM, 24 hours room temperature, Fraction 4: column and contents
# [24] = Sm-DTPA 1 mM, Fraction 1: 3 ml Tris before sample
# [25] = Sm-DTPA 1 mM, Fraction 2: sample then 3 ml Tris (eluate)
# [26] = Sm-DTPA 1 mM, Fraction 3: further 3 ml Tris
# [27] = Sm-DTPA 1 mM, Fraction 4: column and contents
smiles,measurement,setting,value
O=C([O-])CN(CCN(CC(=O)[O-])CC(=O)[O-])CCN(CC(=O)[O-])CC(=O)[O-].[Eu+3] [Eu-DTPA],% of total,[1]; [5],91 % of total
same,dpm,[1]; [5],4763 dpm
same,% of total,[1]; [6],9 % of total
same,dpm,[1]; [6],499 dpm
same,% of total,[1]; [7],0 % of total
same,dpm,[1]; [7],0 dpm
"O=C([O-])CN(CCN(CC(=O)[O-])CC(=O)O)CCN(CC(=O)[O-])CC(=O)O.[Gd+3] [Gd-DTPA, Gd-diethylenetriaminepentaacetic acid]","Percent of initial injection, First injection","[2]; 0 min after 1st injection, Gd-DTPA 0.05 mg/kg i.v. at 0, 20, 40 minutes, T1 relaxation",100% of initial injection
same,"Percent of initial injection, Cumulative total","[2]; 0 min after 1st injection, calculated based upon the first injection",100% of initial injection
same,"Percent of initial injection, Cumulative total",[2]; 10 min after 1st injection,81% of initial injection
same,"Percent of initial injection, First injection",[2]; 10 min after 1st injection,81% of initial injection
same,"Percent of initial injection, Second injection",[2]; 20 min after 1st (0 min after 2nd) injection,100% of initial injection
same,"Percent of initial injection, Cumulative total",[2]; 20 min after 1st injection,173% of initial injection
same,"Percent of initial injection, First injection",[2]; 20 min after 1st injection,73% of initial injection
same,"Percent of initial injection, Second injection",[2]; 30 min after 1st (10 min after 2nd) injection,81% of initial injection
same,"Percent of initial injection, Cumulative total",[2]; 30 min after 1st injection,140% of initial injection
same,"Percent of initial injection, First injection",[2]; 30 min after 1st injection,59% of initial injection
same,"Percent of initial injection, Third injection",[2]; 40 min after 1st (0 min after 3rd) injection,100% of initial injection
same,"Percent of initial injection, Second injection",[2]; 40 min after 1st (20 min after 2nd) injection,73% of initial injection
same,"Percent of initial injection, Cumulative total",[2]; 40 min after 1st injection,220% of initial injection
same,"Percent of initial injection, First injection",[2]; 40 min after 1st injection,47% of initial injection
same,"Percent of initial injection, Third injection",[2]; 50 min after 1st (10 min after 3rd) injection,81% of initial injection
same,"Percent of initial injection, Second injection",[2]; 50 min after 1st (30 min after 2nd) injection,59% of initial injection
same,"Percent of initial injection, Cumulative total",[2]; 50 min after 1st injection,175% of initial injection
same,"Percent of initial injection, First injection",[2]; 50 min after 1st injection,35% of initial injection
same,"Percent of initial injection, Third injection",[2]; 60 min after 1st (20 min after 3rd) injection,73% of initial injection
same,"Percent of initial injection, Second injection",[2]; 60 min after 1st (40 min after 2nd) injection,47% of initial injection
same,"Percent of initial injection, Cumulative total",[2]; 60 min after 1st injection,149% of initial injection
same,"Percent of initial injection, First injection",[2]; 60 min after 1st injection,29% of initial injection
same,"Percent of initial injection, Third injection",[2]; 70 min after 1st (30 min after 3rd) injection,59% of initial injection
same,"Percent of initial injection, Second injection",[2]; 70 min after 1st (50 min after 2nd) injection,35% of initial injection
same,"Percent of initial injection, Cumulative total",[2]; 70 min after 1st injection,120% of initial injection
same,"Percent of initial injection, First injection",[2]; 70 min after 1st injection,26% of initial injection
same,"Percent of initial injection, Third injection",[2]; 80 min after 1st (40 min after 3rd) injection,47% of initial injection
same,"Percent of initial injection, Second injection",[2]; 80 min after 1st (60 min after 2nd) injection,26% of initial injection
same,"Percent of initial injection, Cumulative total",[2]; 80 min after 1st injection,95% of initial injection
same,"Percent of initial injection, First injection",[2]; 80 min after 1st injection,22% of initial injection
same,"Percent of initial injection, Third injection",[2]; 100 min after 1st (60 min after 3rd) injection,35% of initial injection
same,"Percent of initial injection, Second injection",[2]; 100 min after 1st (80 min after 2nd) injection,22% of initial injection
same,"Percent of initial injection, Cumulative total",[2]; 100 min after 1st injection,75% of initial injection
same,"Percent of initial injection, First injection",[2]; 100 min after 1st injection,18% of initial injection
same,stability to autoclaving,[3],stability of gadolinium-DTPA to autoclaving is demonstrated
O=C([O-])CN(CCN(CC(=O)[O-])CC(=O)[O-])CCN(CC(=O)[O-])CC(=O)[O-].[La+3] [La-DTPA],% of total,[1]; [5],93 % of total
same,dpm,[1]; [5],82912 dpm
same,% of total,[1]; [6],7 % of total
same,dpm,[1]; [6],6167 dpm
same,% of total,[1]; [7],0 % of total
same,dpm,[1]; [7],0 dpm
O=C([O-])CN(CCN(CC(=O)[O-])CC(=O)[O-])CCN(CC(=O)[O-])CC(=O)[O-].[Sm+3] [Sm-DTPA],% of total,[4]; [8],0 % of total
same,Dpm,[4]; [8],0 dpm
same,% of total,[4]; [9],99 % of total
same,Dpm,[4]; [9],192 dpm
same,% of total,[4]; [10],1 % of total
same,Dpm,[4]; [10],1 dpm
same,% of total,[4]; [11],0 % of total
same,Dpm,[4]; [11],0 dpm
same,% of total,[4]; [12],0 % of total
same,Dpm,[4]; [12],0 dpm
same,% of total,[4]; [13],96 % of total
same,Dpm,[4]; [13],1386 dpm
same,% of total,[4]; [14],2 % of total
same,Dpm,[4]; [14],29 dpm
same,% of total,[4]; [15],2 % of total
same,Dpm,[4]; [15],21 dpm
same,% of total,[4]; [16],0 % of total
same,Dpm,[4]; [16],0 dpm
same,% of total,[4]; [17],100 % of total
same,Dpm,[4]; [17],15685 dpm
same,% of total,[4]; [18],<1 % of total
same,Dpm,[4]; [18],19 dpm
same,% of total,[4]; [19],0 % of total
same,Dpm,[4]; [19],0 dpm
same,% of total,[4]; [20],0 % of total
same,Dpm,[4]; [20],0 dpm
same,% of total,[4]; [21],98 % of total
same,Dpm,[4]; [21],162208 dpm
same,% of total,[4]; [22],<1 % of total
same,Dpm,[4]; [22],1308 dpm
same,% of total,[4]; [23],2 % of total
same,Dpm,[4]; [23],2121 dpm
same,% of total,[4]; [24],0 % of total
same,Dpm,[4]; [24],0 dpm
same,% of total,[4]; [25],97 % of total
same,Dpm,[4]; [25],1482087 dpm
same,% of total,[4]; [26],1 % of total
same,Dpm,[4]; [26],19089 dpm
same,% of total,[4]; [27],2 % of total
same,Dpm,[4]; [27],24257 dpm
same,stability of the complex on dilution,"[4]; concentration limits of 1 mM to 0.1 μM, 24 hours room temperature",stable complex
same,% eluting from CM Sephadex columns,[4]; concentration range of 0.1 μM to 1 mM,100%
